A value given as a limit tells only on which side of the number the result lay.

What all share (format): biochemical
One assay has as its target Factor XIa (Homo sapiens (Human), UniProt P03951). The assay can be described thus: Factor XIa enzyme inhibition assay (dose response, fluorogenic AMC substrate). The settings on record: read-out: hFXIa IC50. The method in brief: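 Human FXIa at 0.25 nM final with 50 μM final PyroGlu-Pro-Arg-AMC in 20 mM Hepes pH 7.4, 150 mM NaCl, 0.02% Tween 20. Two-fold serial compound dilutions; fluorescence read every minute for 30 min at 30° C. IC50 from a four-parameter Hill fit.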

The target in the next assay is Thrombin (Homo sapiens (Human), UniProt P00734). The assay can be described thus: Dose response assay for protease inhibitors: thrombin. The settings on record: selectivity, thrombin over Factor XIa. The procedure: (§1) • Assay buffer: 20 mM Hepes, pH 7.4; 150 mM NaCl; 0.02% Tween 20 • Compounds: 10 mM stocks in DMSO • Substrate: 20 mM Glp-Pro-Arg-AMC, 25 mg/2.3 mL H2O (store at +4° C.) [Factor XIa, thrombin, and trypsin] • 20 mM Pro-Phe-Arg-AMC (Bachem I-1295), 25 mg/2.2 mL H2O • or Boc-Leu-Gly-Arg-AMC (Bachem I-1105), 25 mg/2.07 mL H2O • (store at +4° C.) [Factor Xa] • Enzyme: Factor XIa; 0.25 μM in 50% glycerol (20 μg/mL) • Trypsin; 0.2 μM in 50% glycerol (4.8 μg/mL) • Thrombin; 0.2 μM in 50% glycerol (7.34 μg/mL) • Factor Xa; 0.2 μM in 50% glycerol (9.2 μg/mL) • These stocks are aliquoted (˜100 μL/aliquot) and stored at −20° C. Methods: • 1. Dilute the substrate to 100 μM in assay buffer (30 μL/6 mL). The enzyme is diluted to 0.5 nM just prior to use (12 μL/6 mL for Factor XIa; 15 μL/6 mL for all of the rest.) • 2. Pipette 50 μL of substrate into each well of the 96 well (12×8) microtiter plate. (Column 1 is used as the 100% activity control and receives no compound, and Column 12 is the blank and receives no enzyme.) Add an additional 46 μL to column 2. • 3. Pipette 4 μL of each compound into the appropriate well in column 2 of the plate (unknowns assayed in triplicate, standard assayed in duplicate). The final compound concentration will be […] of the stock. • 4. Serially two-fold dilute the compound by mixing the sample in column 2, removing 50 μL to the next well (column 3), mix and remove to column 4, etc. until column 11. After mixing column 11, remove 50 μL and discard. • 5. Pipette 50 μL of buffer into column 12. Initiate the reaction by adding 50 μL of enzyme solution to each well of columns 1-11 as rapidly as possible. • 6. Read the plate in a spectrophotometer (SpectraMax) at 30° C., wherein each well is measured every 60 s for 30 min. For Factor Xa assays, each well is measured every 1 min for a total of 60 min. • 7. For Factor XIa assays, the compounds are assayed, in duplicate, at 3 different starting concentrations, 20, 2, and 0.2 μM; 1:10, 1:100, and 1:1000 dilution of 10 mM stock or at 2, 0.2, and 0.02 μM; 1:100, 1:1000, and 1:10,000 dilution of 10 mM stock. Data for each concentration are combined for graphing and data fitting. • 8. Data can be used both for estimation of IC50 and for estimation of Kon.

The next assay relates to Trypsin. The experiment in a line: Dose response assay for protease inhibitors: trypsin. Particulars: selectivity, trypsin over Factor XIa. The protocol:
as §1

Another assay concerns the target Factor Xa (Homo sapiens (Human), UniProt P00742). The experiment in a line: Dose response assay for protease inhibitors: Factor Xa. Particulars: selectivity, Factor Xa over Factor XIa. The protocol: as §1

Factor Xa, sequence (P00742 235-488): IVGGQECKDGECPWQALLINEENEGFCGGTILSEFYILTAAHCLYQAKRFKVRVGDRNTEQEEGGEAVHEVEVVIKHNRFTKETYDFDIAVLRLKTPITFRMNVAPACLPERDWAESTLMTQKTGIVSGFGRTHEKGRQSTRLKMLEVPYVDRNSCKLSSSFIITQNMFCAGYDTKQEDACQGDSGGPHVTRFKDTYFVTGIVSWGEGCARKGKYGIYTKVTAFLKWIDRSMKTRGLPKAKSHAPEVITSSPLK
Factor Xa, sequence (P00742 41-179 partner): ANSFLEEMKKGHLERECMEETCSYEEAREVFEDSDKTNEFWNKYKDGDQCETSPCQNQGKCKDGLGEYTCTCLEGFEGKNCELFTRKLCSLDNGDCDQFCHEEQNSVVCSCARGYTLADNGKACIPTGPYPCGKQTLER
Factor XIa, sequence (P03951 388-625): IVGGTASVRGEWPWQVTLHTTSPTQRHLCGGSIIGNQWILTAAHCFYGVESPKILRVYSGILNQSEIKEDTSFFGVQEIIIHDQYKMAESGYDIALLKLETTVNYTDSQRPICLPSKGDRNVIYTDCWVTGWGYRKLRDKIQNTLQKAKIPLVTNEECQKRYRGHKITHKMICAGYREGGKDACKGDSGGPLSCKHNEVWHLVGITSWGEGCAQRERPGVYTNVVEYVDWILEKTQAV
Factor XIa, sequence (P03951 19-387 partner): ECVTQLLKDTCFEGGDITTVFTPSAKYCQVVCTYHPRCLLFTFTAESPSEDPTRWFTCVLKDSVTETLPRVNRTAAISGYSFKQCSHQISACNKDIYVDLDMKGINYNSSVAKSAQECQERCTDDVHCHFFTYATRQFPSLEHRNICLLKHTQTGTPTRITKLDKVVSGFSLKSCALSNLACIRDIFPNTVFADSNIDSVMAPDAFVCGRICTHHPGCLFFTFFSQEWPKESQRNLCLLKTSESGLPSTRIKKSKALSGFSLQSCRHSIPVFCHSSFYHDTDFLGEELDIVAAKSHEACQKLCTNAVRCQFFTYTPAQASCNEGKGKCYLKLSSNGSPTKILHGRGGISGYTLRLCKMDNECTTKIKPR

A word on the IC50: it is the point on the concentration scale where inhibition reaches its midpoint. Regarding `CC[C@@H](NC(=O)N1C(=O)[C@H](Cc2ccnc(N)c2)[C@H]1C(=O)N(C)c1cn(C)cn1)C1CCCCC1` [Compound 1-71, (2S,3R)-3-((2-aminopyridin-4-yl)methyl)-N2-(1-methyl-1H-imidazol-4-yl)-N1-((R)-1-cyclohexylpropyl)-N2-methyl-4-oxoazetidine-1,2-dicarboxamide], the IC50 on Factor XIa is under 10 nM. The “Ratio: Thrombin/FXIa” value on Thrombin is listed as “G (“G” indicates 1-100)”. Further, in the assay on Trypsin, the “Ratio: Trypsin/FXIa” value is reported as “G (“G” indicates 1-100)”. On Factor Xa, the “Ratio: FXa/FXIa” value is “I (“I” indicates > 500)”.

With `CC[C@@H](NC(=O)N1C(=O)[C@H](Cc2cc(C)nc(NC)c2)[C@H]1C(=O)N(C)c1cn(C)cn1)c1ccccc1` [Compound 1-72, (2S,3R)-3-((2-methylamino-6-methylpyridin-4-yl)methyl)-N2-(1-methyl-1H-imidazol-4-yl)-N1-((R)-1-phenylpropyl)-N2-methyl-4-oxoazetidine-1,2-dicarboxamide], the IC50 at Factor XIa lay within 10 to 100 nM. For the same compound, on Thrombin, the “Ratio: Thrombin/FXIa” value was “G (“G” indicates 1-100)”. Further, in the assay on Trypsin, the “Ratio: Trypsin/FXIa” value is “G (“G” indicates 1-100)”. Also, at Factor Xa, the “Ratio: FXa/FXIa” value is “H (“H” indicates 101-1000)”.

`CC[C@@H](NC(=O)N1C(=O)[C@H](Cc2ccnc(N)c2)[C@H]1C(=O)N(C)c1nccn1C)c1ccc(C)cc1` [Compound 1-87, (2S,3R)-3-((2-aminopyridin-4-yl)methyl)-N2-(1-methyl-1H-imidazol-2-yl)-N1-((R)-1-(4-methylphenyl)propyl)-N2-methyl-4-oxoazetidine-1,2-dicarboxamide]: the IC50 on Factor XIa was under 10 nM. The “Ratio: Thrombin/FXIa” value at Thrombin was “H (“H” indicates 101-1000)”. In addition, the “Ratio: Trypsin/FXIa” value in the assay on Trypsin was “G (“G” indicates 1-100)”. On Factor Xa, the “Ratio: FXa/FXIa” value is reported as “I (“I” indicates > 500)”.

Regarding `CC[C@@H](NC(=O)N1C(=O)[C@H](Cc2ccnc(N)c2)[C@H]1C(=O)N(C)c1nccn1C)c1ccc(Cl)cc1` [Compound 1-94, (2S,3R)-3-((2-aminopyridin-4-yl)methyl)-N2-(1-methyl-1H-imidazol-2-yl)-N1-((R)-1-(4-chlorophenyl)propyl)-N2-methyl-4-oxoazetidine-1,2-dicarboxamide], the IC50 on Factor XIa is under 10 nM. On Thrombin, the “Ratio: Thrombin/FXIa” value is “H (“H” indicates 101-1000)”. Besides, the “Ratio: Trypsin/FXIa” value in the assay with Trypsin is on record as “G (“G” indicates 1-100)”. Moreover, the “Ratio: FXa/FXIa” value at Factor Xa is given as “H (“H” indicates 101-1000)”.

For `CC[C@@H](NC(=O)N1C(=O)[C@H](Cc2ccnc(N)c2)[C@H]1C(=O)N(C)c1nccn1C)c1ccc(OC(F)(F)F)cc1` [Compound 1-97, (2S,3R)-3-((2-aminopyridin-4-yl)methyl)-N2-(1-methyl-1H-imidazol-2-yl)-N1-((R)-1-(4-trifluoromethoxyphenyl)propyl)-N2-methyl-4-oxoazetidine-1,2-dicarboxamide], the half-maximal inhibitory concentration (IC50) on Factor XIa was in the range of 10 to 100 nM. Besides, on Thrombin, the “Ratio: Thrombin/FXIa” value is “H (“H” indicates 101-1000)”. The “Ratio: Trypsin/FXIa” value with Trypsin is given as “G (“G” indicates 1-100)”. On Factor Xa, the “Ratio: FXa/FXIa” value is “H (“H” indicates 101-1000)”.

In the case of `CC[C@@H](NC(=O)N1C(=O)[C@H](Cc2ccnc(N)c2)[C@H]1C(=O)N(C)c1nccn1C)c1ccc(F)cc1` [Compound 1-98, (2S,3R)-3-((2-aminopyridin-4-yl)methyl)-N2-(1-methyl-1H-imidazol-2-yl)-N1-((R)-1-(4-fluorophenyl)propyl)-N2-methyl-4-oxoazetidine-1,2-dicarboxamide], at Factor XIa, the half-maximal inhibitory concentration (IC50) is under 10 nM. The “Ratio: Thrombin/FXIa” value at Thrombin is recorded as “H (“H” indicates 101-1000)”. Also, in the assay with Trypsin, the “Ratio: Trypsin/FXIa” value is reported as “G (“G” indicates 1-100)”. In addition, on Factor Xa, the “Ratio: FXa/FXIa” value is on record as “I (“I” indicates > 500)”.

As for `CC[C@@H](NC(=O)N1C(=O)[C@H](Cc2ccnc(N)c2)[C@H]1C(=O)N(C)c1nccn1C)c1cc(C)ccc1C` [Compound 1-99, (2S,3R)-3-((2-aminopyridin-4-yl)methyl)-N2-(1-methyl-1H-imidazol-2-yl)-N1-((R)-1-(2,5-dimethylphenyl)propyl)-N2-methyl-4-oxoazetidine-1,2-dicarboxamide], on Factor XIa, the IC50 was under 10 nM. For the same compound, at Thrombin, the “Ratio: Thrombin/FXIa” value is “H (“H” indicates 101-1000)”. Further, the “Ratio: Trypsin/FXIa” value with Trypsin is “G (“G” indicates 1-100)”. Also, the “Ratio: FXa/FXIa” value at Factor Xa is recorded as “H (“H” indicates 101-1000)”.

Take `CC[C@@H](NC(=O)N1C(=O)[C@H](Cc2ccnc(N)c2)[C@H]1C(=O)N(C)c1nccn1C)c1ccc(C)c(C)c1` [Compound 1-100, (2S,3R)-3-((2-aminopyridin-4-yl)methyl)-N2-(1-methyl-1H-imidazol-2-yl)-N1-((R)-1-(3,4-dimethylphenyl)propyl)-N2-methyl-4-oxoazetidine-1,2-dicarboxamide]: the half-maximal inhibitory concentration (IC50) at Factor XIa was under 10 nM. For the same compound, the “Ratio: Thrombin/FXIa” value at Thrombin was “H (“H” indicates 101-1000)”. For the same compound, the “Ratio: Trypsin/FXIa” value in the assay with Trypsin is listed as “G (“G” indicates 1-100)”. Besides, the “Ratio: FXa/FXIa” value at Factor Xa is “H (“H” indicates 101-1000)”.

With `CC[C@@H](NC(=O)N1C(=O)[C@H](Cc2ccnc(N)c2)[C@H]1C(=O)N(C)c1nccn1C)c1cc(C)ccc1Cl` [Compound 1-101, (2S,3R)-3-((2-aminopyridin-4-yl)methyl)-N2-(1-methyl-1H-imidazol-2-yl)-N1-((R)-1-(2-chloro-5-methylphenyl)propyl)-N2-methyl-4-oxoazetidine-1,2-dicarboxamide], the IC50 on Factor XIa is under 10 nM. Also, the “Ratio: Thrombin/FXIa” value at Thrombin is on record as “H (“H” indicates 101-1000)”. Besides, the “Ratio: Trypsin/FXIa” value with Trypsin is “G (“G” indicates 1-100)”. For the same compound, on Factor Xa, the “Ratio: FXa/FXIa” value is “H (“H” indicates 101-1000)”.

On to `CC[C@@H](NC(=O)N1C(=O)[C@H](Cc2ccnc(N)c2)[C@H]1C(=O)N(C)c1nccn1C)c1cc(C)ccc1F` [Compound 1-102, (2S,3R)-3-((2-aminopyridin-4-yl)methyl)-N2-(1-methyl-1H-imidazol-2-yl)-N1-((R)-1-(2-fluoro-5-methylphenyl)propyl)-N2-methyl-4-oxoazetidine-1,2-dicarboxamide], for which, at Factor XIa, the IC50 was under 10 nM. Besides, the “Ratio: Thrombin/FXIa” value on Thrombin is “H (“H” indicates 101-1000)”. Also, in the assay on Trypsin, the “Ratio: Trypsin/FXIa” value is given as “G (“G” indicates 1-100)”. For the same compound, the “Ratio: FXa/FXIa” value at Factor Xa is on record as “I (“I” indicates > 500)”.

As to `CC[C@@H](NC(=O)N1C(=O)[C@H](Cc2ccnc(N)c2)[C@H]1C(=O)N(C)c1nccn1C)c1ccc(C)c(Cl)c1` [Compound 1-103, (2S,3R)-3-((2-aminopyridin-4-yl)methyl)-N2-(1-methyl-1H-imidazol-2-yl)-N1-((R)-1-(3-chloro-4-methylphenyl)propyl)-N2-methyl-4-oxoazetidine-1,2-dicarboxamide], on Factor XIa, the 50% inhibitory concentration (IC50) was under 10 nM. Besides, on Thrombin, the “Ratio: Thrombin/FXIa” value was “H (“H” indicates 101-1000)”. Further, the “Ratio: Trypsin/FXIa” value in the assay on Trypsin was “G (“G” indicates 1-100)”. Besides, the “Ratio: FXa/FXIa” value on Factor Xa is given as “H (“H” indicates 101-1000)”.

As to `CC[C@@H](NC(=O)N1C(=O)[C@H](Cc2cc(C)nc(N)c2)[C@H]1C(=O)N(C)c1nccn1C)c1ccc(Cl)cc1` [Compound 1-105, (2S,3R)-3-((2-amino-6-methylpyridin-4-yl)methyl)-N2-(1-methyl-1H-imidazol-2-yl)-N1-((R)-1-(4-chlorophenyl)propyl)-N2-methyl-4-oxoazetidine-1,2-dicarboxamide], the IC50 on Factor XIa lay within 10 to 100 nM. Besides, the “Ratio: Thrombin/FXIa” value at Thrombin is “H (“H” indicates 101-1000)”. The “Ratio: Trypsin/FXIa” value in the assay with Trypsin is reported as “G (“G” indicates 1-100)”. Moreover, the “Ratio: FXa/FXIa” value on Factor Xa is listed as “I (“I” indicates > 500)”.

Take `CC[C@@H](NC(=O)N1C(=O)[C@H](Cc2cc(C)nc(N)c2)[C@H]1C(=O)N(C)c1nccn1C)c1ccc(F)cc1` [Compound 1-106, (2S,3R)-3-((2-amino-6-methylpyridin-4-yl)methyl)-N2-(1-methyl-1H-imidazol-2-yl)-N1-((R)-1-(4-fluorophenyl)propyl)-N2-methyl-4-oxoazetidine-1,2-dicarboxamide]: the IC50 on Factor XIa is under 10 nM. In addition, the “Ratio: Thrombin/FXIa” value at Thrombin is “H (“H” indicates 101-1000)”. Besides, in the assay on Trypsin, the “Ratio: Trypsin/FXIa” value is “G (“G” indicates 1-100)”. In addition, the “Ratio: FXa/FXIa” value at Factor Xa is “I (“I” indicates > 500)”.

The values above are taken from patent US11691962B2 (eXIthera Pharmaceuticals, Inc., priority 2018, dated 2023).
